# Read-outs that look alike come from different tables or passages of the source.
# What was measured:
# [1] = Liver microsomal metabolic stability, rat liver microsomes (RLM); settings: rat, liver microsomes, t1/2 (min) in RLM, 1 μM compound, 1 mg/mL microsomes, NADPH
# USP1/UAF1 enzyme = USP1/UAF1 enzyme (Homo sapiens, UniProt O94782); assay: USP1/UAF1 deubiquitination assay (ubiquitin-rhodamine 110 substrate); assay type: biochemical; settings: read-out: USP1 IC50 (Ub-Rho)
# Outline: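 Cleavage of 150 nM ubiquitin-rhodamine 110 by 0.05 nM USP1/UAF1 was followed as fluorescence (Ex480/Em540, kinetic, 30 min) in Tris-HCl pH 7.8 buffer with EDTA, BSA, DTT and Tween-20. Compounds, top 10 μM, were preincubated with enzyme 10 min; % inhibition against no-enzyme and DMSO wells gave four-parameter IC50s.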
# [2] = Liver microsomal metabolic stability, human liver microsomes (HLM); settings: human, liver microsomes
# [3] = ADME solubility determination in PBS at pH 2.0 and pH 7.4; assay type: physicochemical; settings: phosphate buffered saline, 25 °C, thermodynamic from solid
# Outline: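 Solubility was read by LC-MS/MS on centrifuged supernatants, calibrated to a known-concentration standard and corrected for dilution. Compound, dried down from 10 mM DMSO stock, was equilibrated 24 h at 25° C with shaking in PBS at pH 2.0 or pH 7.4.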
# [4] = system: Ub-PCNA levels in the nucleus of ES2 cells (USP1 activity); assay: ES2 Ub-PCNA immunofluorescence (IF) assay; assay type: cell-based; settings: Homo sapiens, ES-2; ES2 cells, 3 hours, Ub-PCNA immunofluorescence; read-out: USP1 IC50 (Ub-PCNA)
# Description: USP1 is a deubiquitinating enzyme that removes ubiquitin from mono-ubiquitinated Proliferating Cell Nuclear Antigen (Ub-PCNA). The levels of Ub-PCNA in the nucleus of cells can be used to assess the activity of USP1. An immunofluorescence assay can be established to monitor Ub-PCNA levels in the ovarian cancer cell line, ES2.
# An assay can be performed by first plating 5000 ES2 cells per well in black 96 well plates (Corning #3904) and then incubating overnight at 37° C. and 5% CO2. Compounds, resuspended in DMSO, can be added to the cells, to a final DMSO concentration of 0.3%. Plates can be incubated at 37° C. and 5% CO2 for 3 hours.
# Cells can be then fixed and stained by first removing the media from each plate and fixing the cells with −20° C. methanol for 5 minutes at room temperature. Fixation plates can be washed with Tris buffered saline with tween (Boston Bioproducts #IBB-855) 5 times for 5 minutes each. Plates can be blocked for 1 hour with 50 μl of Odyssey blocking buffer (Licor #327-50000) at room temperature with rocking. Block can be removed from all wells and 50 μl of primary antibody was added to each well. Ub-PCNA ab (Cell Signaling Technology #13439) can be diluted at 1:400 in Odyssey blocking buffer. Plates can be sealed and incubated overnight at 4° C. Primary antibodies can be removed from the plates and plates can be washed with Tris buffered saline with tween 5 times for 5 minutes. Plates can be stained for 1 hour at room temperature with rocking with 50 μl of secondary antibodies diluted 1:10,000 in Odyssey blocking buffer at room temperature (anti-rabbit Alexa 488). Antibodies can be removed from the plates and plates can be washed with Tris buffered saline with tween 3 times for 5 minutes. Plates can be washed once with DAPI (Chemometec #910-3012) stain diluted 1:5000 (Stock solution of 500 μg/ml) in tris buffered saline with tween for 5 minutes. DAPI stain can be removed and plates can be washed one additional time for 5 minutes with tris buffered saline with tween. Wash can be removed from the plate and 100 μl tris buffered saline with tween can be added back to all wells, Plates can be sealed with Foil seals or black plate seals and plates can be stored at 4° C. until they can be imaged.
# Imaging of the plates can be performed by first locating the nuclei using the DAPI stain. A mask can be created by drawing a circle slightly smaller than each nucleus. Ub-PCNA intensities can be measured for each individual nucleus counted. A histogram of all Ub-PCNA nuclear intensities measured in untreated wells can be generated and a 95% cutoff can be established. This 95% cutoff can be used to determine the number of Positive cells that have Ub-PCNA values higher than the 95% cutoff. The number of positive cells can be expressed as a percentage by dividing by the total number of cells in the well. This percent positive value can be used to graph all data and to determine AC50 values.
# USP1 is a deubiquitinating enzyme that removes ubiquitin from mono-ubiquitinated
# Proliferating Cell Nuclear Antigen (Ub-PCNA). The levels of Ub-PCNA in the nucleus of cells was used to assess the activity of USP1. An immunofluorescence assay was established to monitor Ub-PCNA levels in the ovarian cancer cell line, ES2.
# This assay was performed by first plating 5000 ES2 cells per well in black 96 well plates (Corning #3904) and then incubated overnight at 37° C. and 5% CO2. Compounds, resuspended in DMSO, were added to the cells, to a final DMSO concentration of 0.3%. Plates were incubated at 37° C. and 5% CO2 for 3 hours.
# Cells were then fixed and stained by first removing the media from each plate and fixing the cells with −20° C. methanol for 5 minutes at room temperature. Following fixation plates were washed with Tris buffered saline with tween (Boston Bioproducts ABB-855) 5 times for 5 minutes each. Plates were blocked for 1 hour with 50μ.1 of Odyssey blocking buffer (Licor #327-50000) at room temperature with rocking. […]
# [5] = pH 2, aqueous buffer, PBS pH 2.0, 25° C., read-out: Solubility at pH 2.0
# [6] = pH 7.4, aqueous buffer, PBS pH 7.4, 25° C., read-out: Solubility at pH 7.4
# Chain of USP1/UAF1 enzyme (O94782 whole entry): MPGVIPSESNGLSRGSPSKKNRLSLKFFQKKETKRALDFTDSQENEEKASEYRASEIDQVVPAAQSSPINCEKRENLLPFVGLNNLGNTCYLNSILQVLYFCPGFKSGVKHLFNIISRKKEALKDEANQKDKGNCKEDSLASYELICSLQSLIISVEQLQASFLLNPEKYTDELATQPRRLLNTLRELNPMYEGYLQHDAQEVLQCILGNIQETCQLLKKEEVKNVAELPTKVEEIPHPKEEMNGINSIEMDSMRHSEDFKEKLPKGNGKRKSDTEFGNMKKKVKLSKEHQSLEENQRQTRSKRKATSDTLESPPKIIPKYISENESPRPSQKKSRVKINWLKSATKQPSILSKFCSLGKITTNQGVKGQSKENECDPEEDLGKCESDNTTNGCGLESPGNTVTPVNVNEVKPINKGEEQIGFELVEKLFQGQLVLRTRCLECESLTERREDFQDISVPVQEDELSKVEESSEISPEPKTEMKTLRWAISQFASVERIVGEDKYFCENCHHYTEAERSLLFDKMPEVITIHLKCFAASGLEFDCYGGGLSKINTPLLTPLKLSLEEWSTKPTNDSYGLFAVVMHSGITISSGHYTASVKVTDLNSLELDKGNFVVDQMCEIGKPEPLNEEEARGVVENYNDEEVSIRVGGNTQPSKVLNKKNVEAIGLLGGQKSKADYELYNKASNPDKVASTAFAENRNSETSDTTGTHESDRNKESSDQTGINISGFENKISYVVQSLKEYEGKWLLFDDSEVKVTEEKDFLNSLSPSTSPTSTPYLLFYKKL
# Chain of USP1/UAF1 enzyme (Q8TAF3 whole entry partner): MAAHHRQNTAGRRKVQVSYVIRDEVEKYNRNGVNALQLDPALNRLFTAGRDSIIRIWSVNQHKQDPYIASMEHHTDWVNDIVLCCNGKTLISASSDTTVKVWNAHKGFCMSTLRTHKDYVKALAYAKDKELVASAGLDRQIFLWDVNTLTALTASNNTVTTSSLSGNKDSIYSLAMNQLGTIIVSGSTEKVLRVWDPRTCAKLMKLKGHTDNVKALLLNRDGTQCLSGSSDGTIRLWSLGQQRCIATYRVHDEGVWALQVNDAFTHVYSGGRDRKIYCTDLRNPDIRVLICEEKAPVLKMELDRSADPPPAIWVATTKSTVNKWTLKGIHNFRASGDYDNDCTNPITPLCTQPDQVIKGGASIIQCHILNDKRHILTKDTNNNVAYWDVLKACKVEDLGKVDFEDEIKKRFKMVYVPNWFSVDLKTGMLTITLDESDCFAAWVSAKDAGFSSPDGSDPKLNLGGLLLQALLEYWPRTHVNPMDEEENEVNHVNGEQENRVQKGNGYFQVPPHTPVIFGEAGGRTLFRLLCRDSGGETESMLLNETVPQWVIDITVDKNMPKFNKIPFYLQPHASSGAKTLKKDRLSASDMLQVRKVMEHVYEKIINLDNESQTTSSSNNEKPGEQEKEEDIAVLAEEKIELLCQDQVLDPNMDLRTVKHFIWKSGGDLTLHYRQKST
smiles,measurement,setting,value
Cc1cnn(C(C)C)c1-c1cc2n(n1)CCCN2Cc1ccc(-c2nc(C(F)(F)F)cn2C)c(F)c1 [Example 55],half-life at 1 μM,[1],< 25 min
same,IC50,USP1/UAF1 enzyme,< 0.1 µM
same,half-life at 1 μM,[2],< 25 min
same,solubility at 24 h,[3]; [5],≥ 10 µM
same,solubility at 24 h,[3]; [6],< 10 µM
same,IC50,[4],< 0.1 µM
CCn1cc(C(F)(F)F)nc1-c1ccc([C@@H](C)N2C(=O)CCn3nc(-c4c(OC)ncnc4C4CC4)nc32)cc1 [Example 184],half-life at 1 μM,[1],< 25 min
same,IC50,USP1/UAF1 enzyme,< 0.1 µM
same,half-life at 1 μM,[2],> 25 min
same,solubility at 24 h,[3]; [5],≥ 10 µM
same,solubility at 24 h,[3]; [6],≥ 10 µM
same,IC50,[4],< 0.1 µM
COc1ncnc(C2CC2)c1-c1nc2n(n1)CCC(=O)N2Cc1ccc(-c2nc(C(F)(F)F)cn2C)c(F)c1 [Example 170],half-life at 1 μM,[1],> 25 min
same,IC50,USP1/UAF1 enzyme,< 0.1 µM
same,half-life at 1 μM,[2],> 25 min
same,solubility at 24 h,[3]; [5],≥ 10 µM
same,solubility at 24 h,[3]; [6],≥ 10 µM
same,IC50,[4],< 0.1 µM
"CCn1cc(C(F)(F)F)nc1-c1ccc([C@H](C)n2c(=O)ccn3nc(-c4c(OC)ncnc4C4CC4)cc23)cc1 [Example 336, (S)-2-(4-cyclopropyl-6-methoxypyrimidin-5-yl)-4-(1-(4-(1-ethyl-4-(trifluoromethyl)-1H-imidazol-2-yl)phenyl)ethyl)pyrazolo[1,5-a]pyrimidin-5(4H)-one]",half-life at 1 μM,[1],> 25 min
same,IC50,USP1/UAF1 enzyme,< 0.1 µM
same,half-life at 1 μM,[2],< 25 min
same,solubility at 24 h,[3]; [5],≥ 10 µM
same,solubility at 24 h,[3]; [6],< 10 µM
same,IC50,[4],< 0.1 µM
"CCn1cc(C(F)(F)F)nc1-c1ccc([C@@H](C)n2c(=O)ccn3nc(-c4c(OC)ncnc4C4CC4)cc23)cc1 [Example 335, (R)-2-(4-cyclopropyl-6-methoxypyrimidin-5-yl)-4-(1-(4-(1-ethyl-4-(trifluoromethyl)-1H-imidazol-2-yl)phenyl)ethyl)pyrazolo[1,5-a]pyrimidin-5(4H)-one]",half-life at 1 μM,[1],> 25 min
same,IC50,USP1/UAF1 enzyme,< 0.1 µM
same,half-life at 1 μM,[2],> 25 min
same,solubility at 24 h,[3]; [5],≥ 10 µM
same,solubility at 24 h,[3]; [6],< 10 µM
same,IC50,[4],< 0.1 µM
"CCn1cc(C(F)(F)F)nc1-c1ccc(NC2CCCn3nc(-c4c(OC(F)F)ncnc4C4CC4)cc32)cc1 (stereo not drawn) [Example 250, 2-(4-cyclopropyl-6-(difluoromethoxy)pyrimidin-5-yl)-N-(4-(1-ethyl-4-(trifluoromethyl)-1H-imidazol-2-yl)phenyl)-4,5,6,7-tetrahydropyrazolo[1,5-a]pyridin-4-amine]",half-life at 1 μM,[1],> 25 min
same,IC50,USP1/UAF1 enzyme,< 0.1 µM
same,half-life at 1 μM,[2],> 25 min
same,solubility at 24 h,[3]; [5],< 10 µM
same,solubility at 24 h,[3]; [6],< 10 µM
same,IC50,[4],< 0.1 µM
"CCn1cc(C(F)(F)F)nc1-c1ccc(N[C@@H]2CCCn3nc(-c4c(Cl)cnn4C(C)C)cc32)cc1 (single isomer, unassigned) [Example 238]",half-life at 1 μM,[1],> 25 min
same,IC50,USP1/UAF1 enzyme,< 0.1 µM
same,half-life at 1 μM,[2],> 25 min
same,solubility at 24 h,[3]; [5],< 10 µM
same,solubility at 24 h,[3]; [6],< 10 µM
same,IC50,[4],< 0.1 µM
COc1nccc(C2CC2)c1-c1nc2n(n1)CCC(=O)N2Cc1ccc(-c2nc(C(F)(F)F)cn2C(C)C)c(F)c1 [Example 213],half-life at 1 μM,[1],> 25 min
same,IC50,USP1/UAF1 enzyme,< 0.1 µM
same,half-life at 1 μM,[2],> 25 min
same,solubility at 24 h,[3]; [5],< 10 µM
same,solubility at 24 h,[3]; [6],< 10 µM
same,IC50,[4],0.1 to 0.5 µM
"CCn1cc(C(F)(F)F)nc1-c1ccc([C@H](C)n2c(=O)ccn3nc(-c4c(OC)ncnc4C4CC4)cc23)cc1F (single isomer, unassigned) [Example 334]",half-life at 1 μM,[1],> 25 min
same,IC50,USP1/UAF1 enzyme,< 0.1 µM
same,half-life at 1 μM,[2],> 25 min
same,solubility at 24 h,[3]; [5],< 10 µM
same,solubility at 24 h,[3]; [6],< 10 µM
same,IC50,[4],0.1 to 0.5 µM
CCn1cc(C(F)(F)F)nc1-c1ccc([C@@H](C)N2C(=O)CCn3nc(-c4c(OC)ncnc4C4CC4)nc32)cc1F [Example 191],half-life at 1 μM,[1],< 25 min
same,IC50,USP1/UAF1 enzyme,< 0.1 µM
same,half-life at 1 μM,[2],> 25 min
same,solubility at 24 h,[3]; [5],< 10 µM
same,solubility at 24 h,[3]; [6],< 10 µM
same,IC50,[4],< 0.1 µM
CCn1cc(C(F)(F)F)nc1-c1ccc(CN2C(=O)CCn3nc(-c4c(Cl)cnn4C4(COC)CC4)cc32)cc1F [Example 153],half-life at 1 μM,[1],< 25 min
same,IC50,USP1/UAF1 enzyme,< 0.1 µM
same,half-life at 1 μM,[2],< 25 min
same,solubility at 24 h,[3]; [5],< 10 µM
same,solubility at 24 h,[3]; [6],< 10 µM
same,IC50,[4],0.1 to 0.5 µM
"CCn1cc(C(F)(F)F)nc1-c1ccc([C@@H](C)n2c(=O)ccn3nc(-c4c(OC)ncnc4C4CC4)cc23)cc1F [Example 333, (R)-2-(4-cyclopropyl-6-methoxypyrimidin-5-yl)-4-(1-(4-(1-ethyl-4-(trifluoromethyl)-1H-imidazol-2-yl)-3-fluorophenyl)ethyl)pyrazolo[1,5-α]pyrimidin-5(4H)-one]",half-life at 1 μM,[1],> 25 min
same,IC50,USP1/UAF1 enzyme,< 0.1 µM
same,half-life at 1 μM,[2],> 25 min
same,solubility at 24 h,[3]; [5],< 10 µM
same,solubility at 24 h,[3]; [6],< 10 µM
same,IC50,[4],< 0.1 µM
COc1ncnc(C2CC2)c1-c1nc2n(n1)CCC(=O)N2Cc1ccc(-c2nc(C(F)(F)F)cn2C(C)C)c(F)c1OC [Example 210],half-life at 1 μM,[1],> 25 min
same,IC50,USP1/UAF1 enzyme,< 0.1 µM
same,half-life at 1 μM,[2],> 25 min
same,solubility at 24 h,[3]; [5],≥ 10 µM
same,solubility at 24 h,[3]; [6],≥ 10 µM
same,IC50,[4],< 0.1 µM
COc1cc(CN2C(=O)CCn3nc(-c4c(OC)ncnc4C4CC4)cc32)ccc1-c1nc(C(F)(F)F)cn1C(C)C [Example 108],half-life at 1 μM,[1],> 25 min
same,IC50,USP1/UAF1 enzyme,< 0.1 µM
same,half-life at 1 μM,[2],> 25 min
same,solubility at 24 h,[3]; [5],≥ 10 µM
same,solubility at 24 h,[3]; [6],< 10 µM
same,IC50,[4],< 0.1 µM
"CC(CF)n1cc(C(F)(F)F)nc1-c1ccc(NC2CCCn3nc(-c4c(OC(F)F)ncnc4C4CC4)cc32)cc1 (stereo not drawn) [Example 249, 2-(4-cyclopropyl-6-(difluoromethoxy)pyrimidin-5-yl)-N-(4-(1-(1-fluoropropan-2-yl)-4-(trifluoromethyl)-1H-imidazol-2-yl)phenyl)-4,5,6,7-tetrahydropyrazolo[1,5-a]pyridin-4-amine]",half-life at 1 μM,[1],> 25 min
same,IC50,USP1/UAF1 enzyme,< 0.1 µM
same,half-life at 1 μM,[2],> 25 min
same,solubility at 24 h,[3]; [5],< 10 µM
same,solubility at 24 h,[3]; [6],< 10 µM
same,IC50,[4],< 0.1 µM
"COc1cccc(C)c1-c1cc2n(n1)CCC(=O)N2Cc1ccc(-c2nc(C(F)(F)F)cn2C)cc1 [Example 75, 2-(2-methoxy-6-methylphenyl)-4-(4-(1-methyl-4-(trifluoromethyl)-1H-imidazol-2-yl)benzyl)-6,7-dihydropyrazolo[1,5-α]pyrimidin-5(4H)-one]",half-life at 1 μM,[1],< 25 min
same,IC50,USP1/UAF1 enzyme,< 0.1 µM
same,half-life at 1 μM,[2],< 25 min
same,solubility at 24 h,[3]; [5],≥ 10 µM
same,solubility at 24 h,[3]; [6],< 10 µM
same,IC50,[4],0.1 to 0.5 µM

# Reference: patent publication US20230219965A1 (KSQ Therapeutics, Inc., priority 2020, published 2023)
